Measured values reported in patent publication US9802920B2, “Inhibitors of bruton's tyrosine kinase” (HOFFMANN-LA ROCHE INC., priority 2013, dated 2017).
pIC50: −log10 of the molar value.

Legend:
[1] = target: inactivated state of Bruton's Tyrosine Kinase (Homo sapiens (Human), UniProt Q06187); assay: Bruton's Tyrosine Kinase (BTK) Inhibition TR-FRET competition assay; format: binding; settings: Kinase Tracer 178, incubated 18-24 h at 14° C.
Description: Calculate percent activity from raw data in cpm percent activity=(sample−bkg)/(total activity−bkg)×100 Calculate IC50 from percent activity, using one-site dose response sigmoidal model y=A+((B−A)/(1+((x/C)^D)))) x=cmpd conc, y=% activity, A=min, B=max, C=IC50, D=1 (hill slope) Bruton's Tyrosine Kinase (BTK) Inhibition TR-FRET (Time Resolved FRET) Assay
This BTK competition assay measures compound potency (IC50) for the inactivated state of Bruton's Tyrosine Kinase using FRET (Förster/Flouresence Resonance Energy Transfer) technology. The BTK-Eu complex was incubated on ice one hour prior to use at a starting concentration of 50 nM BTK-Bioease™: 10 nM Eu-streptavidin (Perkin-Elmer Catalog# AD0062). The assay buffer consisted of 20 mM HEPES (pH 7.15), 0.1 mM DTT, 10 mM MgCl2, 0.5 mg/ml BSA with 3% Kinase Stabilizer (Fremont Biosolutions, Catalog # STB-K02). After 1 h, the reaction mixture from above was diluted 10 fold in assay buffer to make 5 nM BTK: 1 nM Eu-Streptavidin complex (donor fluorophore). 18 μl of a mixture of 0.11 nM BTK-Eu and 0.11 nM Kinase Tracer 178 (Invitrogen, Catalog # PV5593) with BTK-Eu alone as no negative control, was then dispensed into 384-well flat bottom plates (Greiner, 784076). Compounds to be tested in assay were prepared as 10× concentrations and serial dilution in half-log increments was performed in DMSO so as to generate 10 point curves. To initiate the FRET reaction, compounds prepared as 10× stock in DMSO was added to the plates and the plates were incubated 18-24 h at 14° C.
After the incubation the plates were read on a BMG Pherastar Fluorescent plate reader (or equivalent) and used to measure the emission energy from the europium donor fluorophore (620 nm emission) and the FRET (665 nm emission). The negative control well values were averaged to obtain the mean minimum. The positive “no inhibitor” control wells were averaged to obtain the mean maximum. Percent of maximal FRET was calculated using following equation: % max FRET=100×[(FSRcmpd−FSRmean min)/(FSRmean max−FSRmean min)] where FSR=FRET Signal ratio. % Max FRET curves were plotted in Activity Base (Excel) and the IC50(%), hill slope, z′ and % CV were determined. The mean IC50 and standard deviation will be derived from duplicate curves (singlet inhibition curves from two independent dilutions) using Microsoft Excel.

[2] = target: Btk enzyme (His-tagged, full-length) (Homo sapiens (Human), UniProt Q06187); assay: Bruton's Tyrosine Kinase (Btk) Inhibition Assay, radioactive 33P filtration capture; format: biochemical; settings: 100 μM ATP, 30 μM peptide substrate; read-out: Radiometric IC50
Description: Bruton's Tyrosine Kinase (Btk) Inhibition Assay
The assay is a capture of radioactive ^33P phosphorylated product through filtration. The interactions of Btk, biotinylated SH2 peptide substrate (Src homology), and ATP lead to phosphorylation of the peptide substrate. Biotinylated product is bound streptavidin sepharose beads. All bound, radiolabeled products are detected by scintillation counter.
Plates assayed are 96-well polypropylene (Greiner) and 96-well 1.2 μm hydrophilic PVDF filter plates (Millipore). Concentrations reported here are final assay concentrations: 10-100 μM compounds in DMSO (Burdick and Jackson), 5-10 nM Btk enzyme (His-tagged, full-length), 30 μM peptide substrate (Biotin-Aca-[…]-NH2), 100 μM ATP (Sigma), 8 mM imidazole (Sigma, pH 7.2), 8 mM glycerol-2-phosphate (Sigma), 200 μM EGTA (Roche Diagnostics), 1 mM MnCl2 (Sigma), 20 mM mgCl2 (Sigma), 0.1 mg/mL BSA (Sigma), 2 mM DTT (Sigma), 1 μCi ^33P ATP (Amersham), 20% streptavidin sepharose beads (Amersham), 50 mM EDTA (Gibco), 2 M NaCl (Gibco), 2 M NaCl w/1% phosphoric acid (Gibco), microscint-20 (Perkin Elmer).
IC50 determinations are calculated from 10 data points per compound utilizing data produced from a standard 96-well plate assay template. One control compound and seven unknown inhibitors were tested on each plate and each plate was run twice. Typically, compounds were diluted in half-log starting at 100 μM and ending at 3 nM. The control compound was staurosporine. Background was counted in the absence of peptide substrate. Total activity was determined in the presence of peptide substrate. The following protocol was used to determine Btk inhibition.
Sample preparation: The test compounds were diluted at half-log increments in assay buffer (imidazole, glycerol-2-phosphate, EGTA, MnCl2, mgCl2, BSA).
1) Rinse beads by centrifuging at 500 g
2) Reconstitute the beads with PBS and EDTA to produce a 20% bead slurry
3) Pre-incubate reaction mix without substrate (assay buffer, DTT, ATP, ^33P ATP) and mix with substrate (assay buffer, DTT, ATP, ^33P ATP, peptide substrate) 30° C. for 15 min.
4) To start assay, pre-incubate 10 μL Btk in enzyme buffer (imidazole, glycerol-2-phosphate, BSA) and 10 μL of test compounds for 10 min at RT.
5) Add 30 μL reaction mixture without or with substrate to Btk and compounds.
6) Incubate 50 μL total assay mix for 30 min at 30° C.
7) Transfer 40 μL of assay to 150 μL bead slurry in filter plate to stop reaction.
8) Wash filter plate after 30 min, with following steps
3×250 μL NaCl containing 1% phosphoric acid
9) Dry plate for 1 h at 65° C. or overnight at RT
10) Add 50 μL microscint-20 and count ^33P cpm on scintillation counter. […]

Chain of Btk enzyme (His-tagged, full-length) (Q06187 whole entry): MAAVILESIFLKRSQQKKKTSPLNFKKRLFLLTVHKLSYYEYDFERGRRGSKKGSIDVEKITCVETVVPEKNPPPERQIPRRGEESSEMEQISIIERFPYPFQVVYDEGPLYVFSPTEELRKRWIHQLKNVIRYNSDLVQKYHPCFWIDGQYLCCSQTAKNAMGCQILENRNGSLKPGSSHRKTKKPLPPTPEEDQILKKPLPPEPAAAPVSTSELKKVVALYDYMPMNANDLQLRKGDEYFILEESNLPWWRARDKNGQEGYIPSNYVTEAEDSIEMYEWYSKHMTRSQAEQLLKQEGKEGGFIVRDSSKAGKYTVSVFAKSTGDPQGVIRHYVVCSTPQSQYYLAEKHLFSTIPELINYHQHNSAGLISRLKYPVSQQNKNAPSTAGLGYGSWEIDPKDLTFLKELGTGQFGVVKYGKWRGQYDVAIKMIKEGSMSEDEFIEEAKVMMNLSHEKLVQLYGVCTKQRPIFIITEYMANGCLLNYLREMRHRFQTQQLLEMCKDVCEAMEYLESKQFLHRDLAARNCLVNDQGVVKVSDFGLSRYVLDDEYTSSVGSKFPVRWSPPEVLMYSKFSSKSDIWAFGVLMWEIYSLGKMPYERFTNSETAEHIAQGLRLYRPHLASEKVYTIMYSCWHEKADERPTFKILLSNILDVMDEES
Chain of inactivated state of Bruton's Tyrosine Kinase (Q06187 whole entry): as above

SMILES	pIC50 [1]	also measured
Nc1c(C(=O)c2cc3ccccc3[nH]2)cnn1-c1ccc(Oc2ccccc2)c(F)c1 [Compound I-1, [5-Amino-1-(3-fluoro-4-phenoxy-phenyl)-1H-pyrazol-4-yl]-(1H-indol-2-yl)-methanone]	7.39	
Nc1c(C(=O)c2cc3ccccc3[nH]2)cnn1-c1ccc(Oc2ccccc2)nc1 [Compound I-2, [5-Amino-1-(6-phenoxy-pyridin-3-yl)-1H-pyrazol-4-yl]-(1H-indol-2-yl)-methanone]		pIC50 [2]: 6.06
Nc1c(C(=O)c2cc3ccccc3[nH]2)cnn1-c1ccc(Oc2ccccn2)cc1 [Compound I-3, {5-Amino-1-[4-(pyridin-2-yloxy)-phenyl]-1H-pyrazol-4-yl}-(1H-indol-2-yl)-methanone]		pIC50 [2]: 6.30
Nc1c(C(=O)c2cc3ccccc3[nH]2)cnn1-c1ccc(Oc2cccnc2)cc1 [Compound I-4, {5-Amino-1-[4-(pyridin-3-yloxy)-phenyl]-1H-pyrazol-4-yl}-(1H-indol-2-yl)-methanone]		pIC50 [2]: 4.66
Nc1c(C(=O)c2cc3ccccc3[nH]2)cnn1-c1ccc(Oc2ccccc2)c(Cl)c1 [Compound I-5]	6.67	
Nc1c(C(=O)c2cc3ccccc3[nH]2)cnn1-c1ccc(Oc2ccc(F)c(F)c2)cc1 [Compound I-6, {5-Amino-1-[4-(3,4-difluoro-phenoxy)-phenyl]-1H-pyrazol-4-yl}-(1H-indol-2-yl)-methanone]	6.00	
CC(C)Oc1ccc(-n2ncc(C(=O)c3cc4ccccc4[nH]3)c2N)cc1 [Compound I-11, [5-Amino-1-(4-isopropoxy-phenyl)-1H-pyrazol-4-yl]-(1H-indol-2-yl)-methanone]		pIC50 [2]: 4.13
Nc1c(C(=O)c2cc3ccccc3[nH]2)cnn1-c1ccc(OC2CCCC2)cc1 [Compound I-12, [5-Amino-1-(4-cyclopentyloxy-phenyl)-1H-pyrazol-4-yl]-(1H-indol-2-yl)-methanone]		FRET IC50 [1]: > 1000 nM
CC(C)(C)COc1ccc(-n2ncc(C(=O)c3cc4ccccc4[nH]3)c2N)cc1 [Compound I-13, {5-Amino-1-[4-(2,2-dimethyl-propoxy)-phenyl]-1H-pyrazol-4-yl}-(1H-indol-2-yl)-methanone]		FRET IC50 [1]: > 1000 nM
Cc1cc(Oc2cccc(C(N)=O)c2)ccc1-n1ncc(C(=O)c2nc3ccccc3[nH]2)c1N [Compound I-17, 3-{4-[5-Amino-4-(1H-benzoimidazole-2-carbonyl)-pyrazol-1-yl]-3-methyl-phenoxy}-benzamide]	6.64	
Cc1cc(Oc2cccc(F)c2F)ccc1-n1ncc(C(=O)c2nc3ccccc3[nH]2)c1N [Compound I-18, {5-Amino-1-[4-(2,3-difluoro-phenoxy)-2-methyl-phenyl]-1H-pyrazol-4-yl}-(1H-benzoimidazol-2-yl)-methanone]	8.30	
Nc1c(C(=O)c2cc3ccc(CN4CCOCC4)cc3[nH]2)cnn1-c1ccc(Oc2ccccc2)cc1 [Compound I-19, [5-Amino-1-(4-phenoxy-phenyl)-1H-pyrazol-4-yl]-(6-morpholin-4-ylmethyl-1H-indol-2-yl)-methanone]	9.30	
N#Cc1cccc(Oc2ccc(-n3ncc(C(=O)c4cc5ccc(CN6CCOCC6)cc5[nH]4)c3N)c(Cl)c2)c1 [Compound I-20, 3-{4-[5-Amino-4-(6-morpholin-4-ylmethyl-1H-indole-2-carbonyl)-pyrazol-1-yl]-3-chloro-phenoxy}-benzonitrile]	9.00	

Second part, led by results:

pIC50 [1]	SMILES	also measured
7.23	Nc1c(C(=O)c2cc3ccccc3[nH]2)cnn1-c1ccc(Oc2ccccc2)c(O)c1 [Compound I-8, [5-Amino-1-(3-hydroxy-4-phenoxy-phenyl)-1H-pyrazol-4-yl]-(1H-indol-2-yl)-methanone]	
6.84	COc1cc(Oc2ccccc2)ccc1-n1ncc(C(=O)c2cc3ccccc3[nH]2)c1N [Compound I-9, [5-Amino-1-(2-methoxy-4-phenoxy-phenyl)-1H-pyrazol-4-yl]-(1H-indol-2-yl)-methanone]	
6.79	Nc1c(C(=O)c2cc3ccccc3[nH]2)cnn1-c1ccc(Oc2ccccc2)cc1O [Compound I-10, [5-Amino-1-(2-hydroxy-4-phenoxy-phenyl)-1H-pyrazol-4-yl]-(1H-indol-2-yl)-methanone]	
8.52	Cc1cc(Oc2cccc(F)c2F)ccc1-n1ncc(C(=O)c2cc3ccccc3[nH]2)c1N [Compound I-14, {5-Amino-1-[4-(2,3-difluoro-phenoxy)-2-methyl-phenyl]-1H-pyrazol-4-yl}-(1H-indol-2-yl)-methanone]	
8.15	Cc1cc(Oc2ccccc2C#N)ccc1-n1ncc(C(=O)c2cc3ccccc3[nH]2)c1N [Compound I-15, 2-{4-[5-Amino-4-(1H-indole-2-carbonyl)-pyrazol-1-yl]-3-methyl-phenoxy}-benzonitrile]	
7.09	N#Cc1cccc(Oc2ccc(-n3ncc(C(=O)c4cc5ccccc5[nH]4)c3N)c(Cl)c2)c1 [Compound I-16, 3-{4-[5-Amino-4-(1H-indole-2-carbonyl)-pyrazol-1-yl]-3-chloro-phenoxy}-benzonitrile]	
